Assay results: patent US11786492B2, “Therapeutic agent for phosphodiesterase inhibition and its related disorders” (Novalead Pharma Inc, priority 2017, dated 2023)

How the values were obtained:
[1] = tested on: Imiquimod induced psoriasis in BALB/c mice; experiment: Imiquimod induced psoriasis model in Balb/c mice
Experimental: BALB/c mice (Sex: Female, Age: 7-8 Weeks) were used for induction of psoriasis using IMQ. Topical application of imiquimod (IMQ) in mice can induce and exacerbate psoriasis closely resembling human psoriasis. […] 3%, 4% and 5% and positive control of Tenovate (Clobetasol) 0.05% cream. In all 63 mg cream containing 5% of IMQ was applied to dorsal area (shaved back) and right ear for 8 days. Topical formulations from Example 7 were used during this experiment.
The parameters investigated were ear thickness change, % inhibition of ear inflammation, Psoriatic Area Severity Index (PASI). Histopathology was performed of right ear and dorsal skin by H & E staining. The biomarker in this study was inflammatory cytokine IL-23 analyzed by ELISA obtained from tissue lysate of ear region where IMQ and doses were applied.

[2] = tested on: human PBMCs; experiment: Cell viability of human PBMCs, Alamar blue; format: cell-based; conditions: 3 μM
Experimental: (§1) Fresh human blood from healthy volunteer was collected in anticoagulant (5 mM) ethylene diamine tetra acetic acid (EDTA) containing tubes. The growth medium used was RPMI-1640 medium (with 3% FBS) and incubated at 37° C. for 60 mins in a 5% CO2 incubator with vehicle used as 1% DMSO. The cell viability was checked at various time points using Alamar blue and fluorescence readings were taken at excitation of 544 nm and emission of 590 nm.

[3] = tested on: Human IL-22; experiment: IL-22 release from stimulated PBMCs, ELISA; format: cell-based; conditions: 1 μM; PMA+Ionomycin, 18 hrs
Experimental: as §1
(§2) PBMCs were stimulated with different stimulators as follows: • a. Cells were exposed to stimulator LPS at 100 ng/mL for 18 hrs to stimulate TNF-α, IL-6, IFN-γ, IL10, IL-1β • b. Cells were exposed to stimulator IFN-γ+LPS at 100 ng/mL+1 μg/mL for 18 hrs to stimulate IL-12 • c. Cells were exposed to stimulator PMA+Ionomycin at 50 ng/mL+1 μg/mL for 18 hrs to stimulate IL-23, IL-22, IL-17A, IL-17F
(§3) After 18 hrs supernatants were collected and centrifuged to remove any cell debris and aliquots were used for ELISA.

[4] = tested on: Human IL-17A; experiment: IL-17A release from stimulated PBMCs, ELISA; format: cell-based; conditions: 1 μM; PMA+Ionomycin, 18 hrs
Experimental: as §1, §2, §3

[5] = tested on: Human IL-17F; experiment: IL-17F release from stimulated PBMCs, ELISA; format: cell-based; conditions: 1 μM; PMA+Ionomycin, 18 hrs
Experimental: as §1, §2, §3

[6] = tested on: Human TNF-α; experiment: TNF-α release from stimulated PBMCs, ELISA; format: cell-based; conditions: 1 μM; LPS 100 ng/mL, 18 hrs
Experimental: as §1, §2, §3

[7] = tested on: Human IL-6; experiment: IL-6 release from stimulated PBMCs, ELISA; format: cell-based; conditions: 1 μM; LPS 100 ng/mL, 18 hrs
Experimental: as §1, §2, §3

[8] = tested on: Human IL-10; experiment: IL-10 release from stimulated PBMCs, ELISA; format: cell-based; conditions: 1 μM; LPS 100 ng/mL, 18 hrs
Experimental: as §1, §2, §3

[9] = tested on: Human IL-12; experiment: IL-12 release from stimulated PBMCs, ELISA; format: cell-based; conditions: 1 μM; IFN-γ+LPS, 18 hrs
Experimental: as §1, §2, §3

[10] = tested on: Human IFN-γ; experiment: IFN-γ release from stimulated PBMCs, ELISA; format: cell-based; conditions: 1 μM; LPS 100 ng/mL, 18 hrs
Experimental: as §1, §2, §3

[11] = tested on: Human IL-1β; experiment: IL-1β release from stimulated PBMCs, ELISA; format: cell-based; conditions: 1 μM; LPS 100 ng/mL, 18 hrs
Experimental: as §1, §2, §3

[12] = tested on: HaCaT cells; experiment: Cell viability of HaCaT cells, Alamar blue; format: cell-based, human; conditions: 3 μM
Experimental: (§4) HaCaT cells were maintained in T-75 cm2 flask in Dulbecco's modified Eagle medium supplemented with FBS (10%), L-glutamine (2 mM), penicillin (100 ug/ml), streptomycin (100 ug/ml) at 37° C. in 5% CO2 incubator. Cell growth was maintained to 70-80% confluence for seeding and vehicle used was 1% DMSO. The cell viability was checked at various time points using Alamar blue and fluorescence readings were taken at excitation of 544 nm and emission of 590 nm.

[13] = tested on: TNF-α; experiment: TNF-α release from stimulated HaCaT cells, ELISA; format: cell-based, human; conditions: 1 μM; IFN-γ 50 ng/mL, 48 hrs
Experimental: as §4
(§5) HaCaT cells were stimulated with different stimulators as follows: • a. Cells were exposed to stimulator LPS at 1 μg/mL for 48 hrs to stimulate IL-1β • b. Cells were exposed to stimulator IFN-γ at 50 ng/mL for 48 hrs to stimulate TNF-α, IL-6
(§6) After 48 hrs supernatants were collected and centrifuged to remove any cell debris and aliquots were used for ELISA.

[14] = tested on: IL-6; experiment: IL-6 release from stimulated HaCaT cells, ELISA; format: cell-based, human; conditions: 1 μM; IFN-γ 50 ng/mL, 48 hrs
Experimental: as §4, §5, §6

C[C@H]1C[C@H]2[C@@H]3CCC4=CC(=O)C=C[C@]4(C)[C@@]3(F)[C@@H](O)C[C@]2(C)[C@@]1(O)C(=O)CCl [Clobetasol]
% Body Weight Change ([1]; 0.05% cream, positive control): −16.9%
% inhibition of Ear inflamn. ([1]; 0.05% cream, positive control): 86.9%
Histopathology Scores Epidermal Thickness ([1]; 0.05% cream, positive control): 4.3 ± 0.3
Histopathology Scores Hyperkeratosis ([1]; 0.05% cream, positive control): 1.0 ± 0.0
Histopathology Scores Rete Peg Prolifern. ([1]; 0.05% cream, positive control): 0.3 ± 0.3
PASI score ([1]; 0.05% cream, positive control): 4.83 ± 2.3
Spleen weight ([1]; 0.05% cream, positive control, Day 9): 49.3 ± 10.3 mg
IL23 Levels ([1]; 0.05% cream, positive control, ear tissue lysate): 64.1 ± 7.4 pg/mL
Spleen weight vs disease control (in words) ([1]; Niclosamide 2%, Nitazoxanide 3% and 5%, Clobetasol 0.05%, Day 9): reduction in spleen weight was observed to be significant
Body weight change (in words) ([1]; all tested doses, Clobetasol Day 7 to Day 9): significant body weight change
IL-23 level in ear tissue homogenates (in words) ([1]; different doses): reduces IL-23 levels below that of normal control

C[C@@H]1C[C@H]2[C@@H]3CCC4=CC(=O)C=C[C@]4(C)[C@@]3(F)[C@@H](O)C[C@]2(C)[C@@]1(O)C(=O)CO [Dexamethasone]
% Viability (±S.E.M.) ([2]; 24 hrs): 82 ± 6%
% Viability (±S.E.M.) ([2]; 48 hrs): 78 ± 1%
% Viability (±S.E.M.) ([2]; 72 hrs): 81 ± 1%
Human IL-22 concentration [3]: 2496 pg/mL
Human IL-17A concentration [4]: 186 pg/mL
Human IL-17F concentration [5]: 322 pg/mL
Human TNF-α concentration [6]: 325 pg/mL
Human IL-6 concentration [7]: 3052 pg/mL
Human IL-10 concentration [8]: 710 pg/mL
Human IL-12 concentration [9]: 163 pg/mL
Human IFN-γ concentration [10]: 165 pg/mL
Human IL-1β concentration [11]: 174 pg/mL
% Viability (±S.E.M.) ([12]; 24 hrs): 46 ± 3%
% Viability (±S.E.M.) ([12]; 48 hrs): 18 ± 2%
% Viability (±S.E.M.) ([12]; 72 hrs): 8 ± 0%
TNF-α Conc. [13]: 3.2 ± 0 pg/mL
IL-6 Conc. [14]: 33 ± 1 pg/mL
